The nature of this data set: in vitro. The note with it: human, hela cells, % viability.
Consider `Cc1nc(NC(=O)c2cccc(NC(=O)C3CCCO3)c2)sc1-c1n[nH]c(=S)n1C` (centres unmarked) [CBK295341], for which the viability at 28.5 h, 10 µM stood at 86.9%. Then `Cc1ccc(C2(O)CCN(Cc3c(C)nc4cc(C)ccn34)CC2)cc1` [CBK282733], with 80.5%; and `COc1ccc(NC(=O)C2CC3CCC2C3)cc1S(=O)(=O)Nc1ccc(Cl)cc1` (centres unmarked) [CBK297945], with 79.4%.

In the case of `Nc1nnc(Sc2ccc([N+](=O)[O-])c3nonc23)s1` [CBK266712], the viability at 28.5 h, 10 µM came out at 82.3%.

For `COC(=O)c1c(NC(=S)NCc2ccccn2)sc(C(=O)N(C)C)c1C` [CBK267055], the viability at 28.5 h, 10 µM turned out to be 98.8%.

With `O=C(NCc1cccc(C(F)(F)F)c1)c1ccccc1-n1cccc1` [CBK149598], the viability at 28.5 h, 10 µM amounted to 100%.

Take `O=C(CCN1CCN(CCO)CC1)Nc1ccc(Cl)cc1` [CBK033787]: the viability at 28.5 h, 10 µM is 101%.

As to `CS(=O)(=O)Nc1cccc(-c2cnc3[nH]c(=O)n(Cc4ccc(S(C)(=O)=O)cc4)c3n2)c1` [CBK065061], the viability at 28.5 h, 10 µM is 98.6%.

On to `Cc1ccc(C(=O)Nc2ccc3c(c2)OCO3)c(N2CCOCC2)n1` [CBK076377], for which the viability at 28.5 h, 10 µM is 92.9%. Turning to `CCCC12CN3CC(C)(CN(C1)C31C(=O)Nc3ccc(C)cc31)C2=O` (centres unmarked) [CBK268491], the viability at 28.5 h, 10 µM worked out at 113%. Then `COc1ccc(C(=O)N2CCC3(CCCN(CCN(C)C)C3)C2)cc1OC` (centres unmarked) [CBK132873], with 95.6%; and `CCCN(CC(=O)NCc1ccco1)Cc1nnc(-c2ccco2)o1` [CBK305302], with 111%. Then `Nc1nc(-c2ccccc2)nn1C(=O)CCc1ccccc1` [CBK074471], with 95.9%; and `Cc1cc(C)n(C(=O)c2cccc(S(=O)(=O)N3CCCCCC3)c2)n1` [CBK266727], with 102%. With `O=C(c1nccs1)C1CCN(C(=O)c2cc(F)cc(F)c2)CC1` [CBK284200] the figure was 96.9%; with `O=C(COc1ccc(F)cc1)NCc1ccc(-c2csnn2)cc1` [CBK149315], 98.3%; with `COc1cc(NC(=O)CN2C(=O)c3ccc([N+](=O)[O-])cc3C2=O)c(C(=O)O)cc1OC` [CBK265109], 97.7%. For `CCCn1c(NC(=O)C2CCCN2S(=O)(=O)CC)nc2ccccc21` (centres unmarked) [CBK295624], the viability at 28.5 h, 10 µM is 96.8%. Then `Cc1cc(C)c(-n2nnnc2SCc2ccc(F)cc2)c(C)c1` [CBK100994], with 103%; and `CCN1CCN(C(=S)c2ccc(OCC(N)=O)c(OC)c2)CC1` [CBK269293], with 86.1%; and `CCc1ccc(C(=O)NCCCN2CCOCC2)cc1` [CBK268144], with 104%.

Take `Cn1cc(CNC(=O)Nc2cc(C(=O)N3CCOCC3)ccc2Cl)cn1` [CBK307080]: the viability at 28.5 h, 10 µM worked out at 83.4%. With `Cn1c(=O)c2c(nc(CN3CCOCC3)n2CCc2ccccc2)n(C)c1=O` [CBK269264] the figure was 89.3%; with `CC1CCN(S(=O)(=O)c2ccc(NC(=O)COc3ccc4ccccc4c3)cc2)CC1` [CBK264969], 96.7%.

Take `COc1ccc(-c2c[nH]c([C@@H]3COCCN3Cc3ccccc3O)n2)cc1` [CBK289296]: the viability at 28.5 h, 10 µM stood at 85.1%. Then `NC(=O)C1(Cc2cccc(-c3cccs3)c2)CCN(C(=O)COc2ccccc2)CC1` [CBK285741], with 103%; and `COc1cccc(C(NC(=O)C2COc3ccc(OC)cc3C2)c2ccccc2)c1` (centres unmarked) [CBK285713], with 97.7%. Then `CC(C)NS(=O)(=O)c1ccc(NS(=O)(=O)c2cccc(C(=O)O)c2)cc1` [CBK296950], with 84.3%; and `CCN1CC2(CCN(Cc3ccc4nsnc4c3)CC2)c2ccccc21` [CBK136994], with 87.7%. In the case of `Cc1nc(NS(=O)(=O)c2cccc(Cl)c2C)sc1C(=O)O` [CBK045561], the viability at 28.5 h, 10 µM is 110%. Then `O=C(c1ccc[nH]1)N1CCc2ccccc21` [CBK200285], with 72.6%; and `CCOc1ccccc1-n1c(CN2CCN(C(=O)c3ccco3)CC2)nc2ccccc2c1=O` [CBK267203], with 86.4%. Regarding `Cc1cc2ccccc2n1CCCNS(=O)(=O)c1ccc2[nH]c(=O)[nH]c(=O)c2c1` [CBK286362], the viability at 28.5 h, 10 µM was 96%. Then `CC(C)(C)c1ccc(S(=O)(=O)N2CCCC[C@H]2CCOC(=O)/C=C\C(=O)O)cc1` [CBK200069], with 89.6%; and `C[C@H](NC(=O)Cn1cc(-c2ccc(CN3CCCC3)cc2)nn1)c1ccc(Br)cc1` [CBK167692], with 86%. Then `O=C(O)CCC(NC(=O)c1ccc(I)cc1)C(=O)O` (centres unmarked) [CBK087614], with 95.8%. With `CC(C)(C)c1ccc(NC(=O)N(Cc2ccccc2C(F)(F)F)CC2CCNCC2)cc1` [CBK049752] the figure was 86.7%; with `CCCc1ccc(C(C)NC(=O)C2CC2C)cc1` (centres unmarked) [CBK057847], 82.4%; with `Cn1cccc1C(=O)N[C@H]1CCN2C(=O)N(c3ccc(OC(F)(F)F)cc3)C(=O)[C@@H]2C1` [CBK289548], 94.7%. As for `O=C(CCC1CCCC1)n1ccn(-c2ccc3c(c2)OCO3)c1=O` [CBK106631], the viability at 28.5 h, 10 µM was determined as 101%. For the molecule `CC(C)C(c1nnnn1Cc1ccccc1)N1CCOCC1` (centres unmarked) [CBK028054], the viability at 28.5 h, 10 µM was found to be 117%. Then `c1cnc(N2CCCC2)c(OC2CCCNC2)n1` (centres unmarked) [CBK115283], with 90.2%. With `O=C(CCS(=O)(=O)c1nc(-c2ccccc2)cc(C(F)(F)F)n1)Nc1ccc(Cl)cc1Cl` [CBK268717] the figure was 84.9%; with `O=C(Nc1ccc(Cl)cc1)C(Cc1ccccc1)N1C(=O)c2cc(Cl)c(Cl)cc2C1=O` (centres unmarked) [CBK264172], 99.2%; with `O=C(Cc1ccc(Cl)cc1)N1CCc2c([nH]c3ccccc23)C12CCN(Cc1ccc(F)cc1)C2` (centres unmarked) [CBK059453], 90.6%. For the molecule `Sc1nncn1NCc1cc(Cl)ccc1OCc1ccccc1` [CBK265752], the viability at 28.5 h, 10 µM came to 88.9%.

For `O=c1c2ccccc2nc(CSc2[nH]cnc3ncnc2-3)n1-c1ccc(Cl)c(Cl)c1` [CBK217854], the viability at 28.5 h, 10 µM worked out at 93.9%.

For the molecule `O=C1CN(C(=O)NCc2cccc(C(F)(F)F)c2)CCN1` [CBK155850], the viability at 28.5 h, 10 µM turned out to be 105%.

With `CC(C)CNc1nc(-c2ccc(F)cc2)cnc1N` [CBK063815], the viability at 28.5 h, 10 µM turned out to be 105%.

For the molecule `O=C(c1ccccc1CCc1ccccc1)N1CCN(Cc2ccc3c(c2)OCO3)CC1` [CBK268623], the viability at 28.5 h, 10 µM came to 120%. Turning to `Fc1ccc(-n2c(C3CC3)n[nH]c2=S)cc1Cl` [CBK288364], the viability at 28.5 h, 10 µM came to 96.7%. With `CN1C(=O)C(C)(C)Oc2ccc(C(O)c3ccco3)cc21` (centres unmarked) [CBK284469] the figure was 89.8%; with `C[C@@H](Nc1nc(-c2cccc3ncccc23)cnc1N)c1ccccc1` [CBK063755], 107%. Then `CCCc1[nH]n(CCc2ccccc2)c(=O)c1Cc1c(Cl)cccc1Cl` [CBK112499], with 99.8%; and `Brc1cccc(/C=N/c2ccc3nc(-c4ccccc4)[nH]c3c2)c1` [CBK261143], with 109%. On to `O=C(/C=C/c1ccc(-c2ccccc2[N+](=O)[O-])o1)Nc1ccc(-c2nc3ncccc3o2)cc1` [CBK263434], for which the viability at 28.5 h, 10 µM came out at 99.2%.

The values above are taken from article PMC12040169 (PLOS Biology, 2025).
